Measurements from patent publication US12673961B2 (Agios Pharmaceuticals, Inc., priority 2022, dated 2026).

The molecules below were run against T1, human PAH with the R408W mutation (Homo sapiens, UniProt P00439, R408W) (assay: Cell Based Phenylalanine Flux Assay). Details: A375 cells expressing human R408W PAH; 24 hrs with compound, then sepiapterin and 13C9,15N-Phenylalanine for 4 hours; 13C-Tyrosine by LC-MS; average where tested multiple times; read-out: AC50.
T1 construct: expressed in transfected cells
T1 sequence (P00439 1-452 R408W): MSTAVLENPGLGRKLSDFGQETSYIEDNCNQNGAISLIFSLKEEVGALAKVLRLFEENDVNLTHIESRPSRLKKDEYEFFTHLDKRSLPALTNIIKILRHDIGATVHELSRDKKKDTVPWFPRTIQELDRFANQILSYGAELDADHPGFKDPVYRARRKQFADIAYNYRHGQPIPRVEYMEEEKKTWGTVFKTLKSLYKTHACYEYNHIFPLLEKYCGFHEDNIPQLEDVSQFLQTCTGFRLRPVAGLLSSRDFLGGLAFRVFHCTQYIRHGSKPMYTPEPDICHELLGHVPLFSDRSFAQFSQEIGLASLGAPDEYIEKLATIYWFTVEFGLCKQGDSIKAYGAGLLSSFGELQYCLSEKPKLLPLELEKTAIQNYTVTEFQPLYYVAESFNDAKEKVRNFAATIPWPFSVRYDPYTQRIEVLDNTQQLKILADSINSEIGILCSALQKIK
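Also: Ten-point dose curve from 2-fold serial dilutions, run in duplicate at 0.5% DMSO final, tracer step used 20 µM sepiapterin and 800 µM labeled phenylalanine.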

Row | AC50 [nM] | Compound
1 | < 500 | Cn1cc(-c2nc(C3CC3)c(C(=O)N3CCc4[nH]cnc4[C@H]3c3cc4c(C(F)(F)F)cccn4n3)o2)cn1 [Example 2116, (S)-(4-cyclopropyl-2-(1-methyl-1H-pyrazol-4-yl)oxazol-5-yl)(4-(4-(trifluoromethyl)pyrazolo[1,5-a]pyridin-2-yl)-1,4,6,7-tetrahydro-5H-imidazo[4,5-c]pyridin-5-yl)methanone]
2 | 1000 to 5000 | Cn1cc(-c2nc(C3CC3)c(C(=O)N3CCc4[nH]cnc4[C@@H]3c3cc4c(C(F)(F)F)cccn4n3)o2)cn1 [Example 2117, (R)-(4-cyclopropyl-2-(1-methyl-1H-pyrazol-4-yl)oxazol-5-yl)(4-(4-(trifluoromethyl)pyrazolo[1,5-a]pyridin-2-yl)-1,4,6,7-tetrahydro-5H-imidazo[4,5-c]pyridin-5-yl)methanone]
3 | 1000 to 5000 | Cc1cccn2nc([C@H]3c4nc[nH]c4CCN3C(=O)c3oc(-c4ccccn4)nc3C3CC3)cc12 [Example 2121, (R)-(4-cyclopropyl-2-(pyridin-2-yl)oxazol-5-yl)(4-(4-methylpyrazolo[1,5-a]pyridin-2-yl)-1,4,6,7-tetrahydro-5H-imidazo[4,5-c]pyridin-5-yl)methanone]
4 | < 500 | O=C(c1oc(-c2ccccn2)nc1C1CC1)N1CCc2[nH]cnc2[C@H]1c1cc2c(C(F)(F)F)cccn2n1 [Example 2124, (S)-(4-cyclopropyl-2-(pyridin-2-yl)oxazol-5-yl)(4-(4-(trifluoromethyl)pyrazolo [1,5-a]pyridin-2-yl)-1,4,6,7-tetrahydro-5H-imidazo[4,5-c]pyridin-5-yl)methanone]
5 | < 500 | CC(C)c1cccn2nc([C@@H]3c4nc[nH]c4CCN3c3nnc(C(F)(F)F)o3)cc12 [Example 2147, (S)-2-(4-(4-isopropylpyrazolo [1,5-a]pyridin-2-yl)-1,4,6,7-tetrahydro-5H-imidazo [4,5-c]pyridin-5-yl)-5-(trifluoromethyl)-1,3,4-oxadiazole]
6 | < 500 | CC(C)c1cccn2nc([C@@H]3c4nc[nH]c4CCN3c3ccc(C(F)(F)F)cn3)cc12 [Example 2148, (S)-4-(4-isopropylpyrazolo [1,5-a]pyridin-2-yl)-5-(5-(trifluoromethyl)pyridin-2-yl)-4,5,6,7-tetrahydro-1H-imidazo[4,5-c]pyridine]
7 | > 5000 | FC(F)Oc1cccn2nc([C@H]3c4nc[nH]c4CCN3c3nnc(C(F)(F)F)o3)cc12 [Example 2154, (R)-2-(4-(4-(difluoromethoxy)pyrazolo[1,5-a]pyridin-2-yl)-1,4,6,7-tetrahydro-5H-imidazo[4,5-c]pyridin-5-yl)-5-(trifluoromethyl)-1,3,4-oxadiazole]
8 | < 500 | FC(F)Oc1cccn2nc([C@@H]3c4nc[nH]c4CCN3c3nnc(C(F)(F)F)o3)cc12 [Example 2155, (S)-2-(4-(4-(difluoromethoxy)pyrazolo[1,5-a]pyridin-2-yl)-1,4,6,7-tetrahydro-5H-imidazo[4,5-c]pyridin-5-yl)-5-(trifluoromethyl)-1,3,4-oxadiazole]
9 | 500 to 1000 | Fc1cccn2nc([C@@H]3c4nc[nH]c4CCN3c3nnc(-c4cnccn4)o3)cc12 [Example 2159, (S)-2-(4-(4-fluoropyrazolo [1,5-a]pyridin-2-yl)-1,4,6,7-tetrahydro-5H-imidazo[4,5-c]pyridin-5-yl)-5-(pyrazin-2-yl)-1,3,4-oxadiazole]

Row | Compound | AC50 [nM]
10 | Cc1cccn2nc([C@@H]3c4nc[nH]c4CCN3c3ccccn3)cc12 [Example 2127, (S)-4-(4-methylpyrazolo [1,5-a]pyridin-2-yl)-5-(pyridin-2-yl)-4,5,6,7-tetrahydro-1H-imidazo[4,5-c]pyridine] | < 500
11 | FC(F)(F)c1ccc(N2CCc3[nH]cnc3[C@H]2c2cc3cccc(Cl)n3n2)nc1 [Example 2136, (S)-4-(7-chloropyrazolo [1,5-a]pyridin-2-yl)-5-(5-(trifluoromethyl)pyridin-2-yl)-4,5,6,7-tetrahydro-1H-imidazo[4,5-c]pyridine] | < 500
